Experimental data: PubChem BioAssay (NCI)
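Each compound was tested at five concentrations against cells in 96-well plates for 48 hours. At the GI50, growth is halved. The concentration for full growth arrest is given as TGI.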

Key:
Assay in all cases: inhibition of tumour cell growth, NCI panel, 48 h
T-47D breast = test system: T-47D breast
KM12 colon = test system: KM12 colon
SF-539 CNS = test system: SF-539 CNS
HCC-2998 colon = test system: HCC-2998 colon
786-0 renal = test system: 786-0 renal
SK-MEL-28 melanoma = test system: SK-MEL-28 melanoma
UACC-62 melanoma = test system: UACC-62 melanoma
HT29 colon = test system: HT29 colon
SF-295 CNS = test system: SF-295 CNS
NCI-H522 lung = test system: NCI-H522 lung
MALME-3M melanoma = test system: MALME-3M melanoma
HCT-15 colon = test system: HCT-15 colon
A549 NSCLC = test system: A549 NSCLC
SK-MEL-2 melanoma = test system: SK-MEL-2 melanoma
COLO 205 colon = test system: COLO 205 colon
HCT-116 colon = test system: HCT-116 colon
SN12C renal = test system: SN12C renal
U251 CNS = test system: U251 CNS
A498 renal = test system: A498 renal
SNB-75 CNS = test system: SNB-75 CNS
TK-10 renal = test system: TK-10 renal
OVCAR-5 ovarian = test system: OVCAR-5 ovarian
NCI-H460 lung = test system: NCI-H460 lung
ACHN renal = test system: ACHN renal
MDA-MB-231 breast = test system: MDA-MB-231 breast
MCF7 breast = test system: MCF7 breast
NCI-H226 lung = test system: NCI-H226 lung
OVCAR-3 ovarian = test system: OVCAR-3 ovarian
IGROV1 ovarian = test system: IGROV1 ovarian
NCI-H23 lung = test system: NCI-H23 lung
SK-OV-3 ovarian = test system: SK-OV-3 ovarian
HL-60(TB) leukemia = test system: HL-60(TB) leukemia
M14 melanoma = test system: M14 melanoma
RXF 393 renal = test system: RXF 393 renal
HOP-62 NSCLC = test system: HOP-62 NSCLC
MDA-MB-435 = test system: MDA-MB-435
SF-268 CNS = test system: SF-268 CNS
SR leukemia = test system: SR leukemia
SNB-19 CNS = test system: SNB-19 CNS
OVCAR-4 ovarian = test system: OVCAR-4 ovarian
BT-549 breast = test system: BT-549 breast
SW-620 colon = test system: SW-620 colon
CAKI-1 renal = test system: CAKI-1 renal
OVCAR-8 ovarian = test system: OVCAR-8 ovarian
UO-31 renal = test system: UO-31 renal
HS 578T breast = test system: HS 578T breast
UACC-257 melanoma = test system: UACC-257 melanoma
K-562 leukemia = test system: K-562 leukemia
DU-145 prostate = test system: DU-145 prostate
EKVX NSCLC = test system: EKVX NSCLC
LOX IMVI melanoma = test system: LOX IMVI melanoma
SK-MEL-5 melanoma = test system: SK-MEL-5 melanoma

O=c1oc2c(cc1-c1ccccc1)C(O)Oc1ccccc1-2 (centres undefined)
GI50 (T-47D breast): 4.41 µM
TGI (T-47D breast): 22.3 µM
GI50 (KM12 colon): 3.04 µM
TGI (KM12 colon): 23.4 µM
GI50 (SF-539 CNS): 12.4 µM
TGI (SF-539 CNS): 98 µM
GI50 (HCC-2998 colon): 3.55 µM
TGI (HCC-2998 colon): 19.3 µM
GI50 (786-0 renal): 11.6 µM
TGI (786-0 renal): > 100 µM
GI50 (SK-MEL-28 melanoma): 3.1 µM
TGI (SK-MEL-28 melanoma): 25 µM
GI50 (UACC-62 melanoma): 12.8 µM
TGI (UACC-62 melanoma): 39.7 µM
GI50 (HT29 colon): 3.21 µM
TGI (HT29 colon): > 100 µM
GI50 (SF-295 CNS): 8.79 µM
TGI (SF-295 CNS): 97.1 µM
GI50 (NCI-H522 lung): 4.97 µM
TGI (NCI-H522 lung): 21.2 µM
GI50 (MALME-3M melanoma): 9.19 µM
TGI (MALME-3M melanoma): 58.5 µM
GI50 (HCT-15 colon): 5.04 µM
TGI (HCT-15 colon): > 100 µM
GI50 (A549 NSCLC): 7.84 µM
TGI (A549 NSCLC): 95.8 µM
GI50 (SK-MEL-2 melanoma): 5.81 µM
TGI (SK-MEL-2 melanoma): 30.6 µM
GI50 (COLO 205 colon): 7.72 µM
TGI (COLO 205 colon): 25.9 µM
GI50 (HCT-116 colon): 3.9 µM
TGI (HCT-116 colon): 34.6 µM
GI50 (SN12C renal): 20.5 µM
TGI (SN12C renal): > 100 µM
GI50 (U251 CNS): 7.92 µM
TGI (U251 CNS): > 100 µM
GI50 (A498 renal): 7.98 µM
TGI (A498 renal): 44.7 µM
GI50 (SNB-75 CNS): 3.54 µM
TGI (SNB-75 CNS): 29 µM
GI50 (TK-10 renal): 6.46 µM
TGI (TK-10 renal): > 100 µM
GI50 (OVCAR-5 ovarian): 31.3 µM
TGI (OVCAR-5 ovarian): > 100 µM
GI50 (NCI-H460 lung): 4.12 µM
TGI (NCI-H460 lung): > 100 µM
GI50 (ACHN renal): 20.4 µM
TGI (ACHN renal): > 100 µM
GI50 (MDA-MB-231 breast): 15.5 µM
TGI (MDA-MB-231 breast): > 100 µM
GI50 (MCF7 breast): 4.29 µM
TGI (MCF7 breast): > 100 µM
GI50 (NCI-H226 lung): 28.8 µM
TGI (NCI-H226 lung): > 100 µM
GI50 (OVCAR-3 ovarian): 2.6 µM
TGI (OVCAR-3 ovarian): > 100 µM
GI50 (IGROV1 ovarian): 10.4 µM
TGI (IGROV1 ovarian): 91.9 µM
GI50 (NCI-H23 lung): 7.94 µM
TGI (NCI-H23 lung): 25 µM
GI50 (SK-OV-3 ovarian): 10.2 µM
TGI (SK-OV-3 ovarian): 75.7 µM
GI50 (HL-60(TB) leukemia): 2.6 µM
TGI (HL-60(TB) leukemia): 26.8 µM
GI50 (M14 melanoma): 3.32 µM
TGI (M14 melanoma): 14.5 µM
GI50 (RXF 393 renal): 2.42 µM
TGI (RXF 393 renal): 6.41 µM
GI50 (HOP-62 NSCLC): 10.3 µM
TGI (HOP-62 NSCLC): 78.8 µM
GI50 (MDA-MB-435): 1.62 µM
TGI (MDA-MB-435): > 100 µM
GI50 (SF-268 CNS): 16.3 µM
TGI (SF-268 CNS): 83.6 µM
GI50 (SR leukemia): 2.89 µM
TGI (SR leukemia): 13.7 µM
GI50 (SNB-19 CNS): 6.38 µM
TGI (SNB-19 CNS): > 100 µM
GI50 (OVCAR-4 ovarian): 14.8 µM
TGI (OVCAR-4 ovarian): 70.6 µM
GI50 (BT-549 breast): 17.4 µM
TGI (BT-549 breast): > 100 µM
GI50 (SW-620 colon): 4.37 µM
TGI (SW-620 colon): > 100 µM
GI50 (CAKI-1 renal): 5.09 µM
TGI (CAKI-1 renal): > 100 µM
GI50 (OVCAR-8 ovarian): 6.89 µM
TGI (OVCAR-8 ovarian): > 100 µM
GI50 (UO-31 renal): 11.5 µM
TGI (UO-31 renal): 52.3 µM
GI50 (HS 578T breast): 13.4 µM
TGI (HS 578T breast): > 100 µM
GI50 (UACC-257 melanoma): 12.4 µM
TGI (UACC-257 melanoma): 35.4 µM
GI50 (K-562 leukemia): 4.27 µM
TGI (K-562 leukemia): > 100 µM
GI50 (DU-145 prostate): 18.9 µM
TGI (DU-145 prostate): > 100 µM
GI50 (EKVX NSCLC): 28.1 µM
TGI (EKVX NSCLC): > 100 µM
GI50 (LOX IMVI melanoma): 13 µM
TGI (LOX IMVI melanoma): > 100 µM
GI50 (SK-MEL-5 melanoma): 3.8 µM
TGI (SK-MEL-5 melanoma): 16.5 µM
